± gives the standard deviation of the averaged measurements.
Columns and labels:
Experiment in all cases: level (log10 ratio to DMSO vehicle control); higher = higher biomarker level / cell amount than vehicle control
Details in all cases: in DMSO
[1] = compound: O=C(O)C(F)(F)C(F)(F)C(F)(F)C(=O)O [Hexafluoroglutaric acid]
Protocol: (§1)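 BioMAP Diversity Plus panel of 12 human primary cell co-culture systems (3C, 4H, LPS, SAg, BT, BF4T, BE3C, CASM3C, HDF3CGF, KF3CT, MyoF, Mphg). Compounds were added 1 h before stimulation and left for 24 h (MyoF 48 h; BT 72 h for soluble read-outs or 6 d for IgG). Biomarkers were read by ELISA, cytotoxicity by SRB, PBMC viability and proliferation by Alamar Blue. Each well value was divided by the mean of 8 DMSO control wells on the same plate and log10 transformed; duplicate blinded samples were tested at 4 concentrations.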

[2] = compound: Cn1cnc([N+](=O)[O-])c1Sc1ncnc2[nH]cnc12 [Azathioprine]
Protocol: as §1

[3] = compound: OCC(F)(F)C(F)(F)C(F)(F)F [1H,1H-Heptafluorobutanol]
Protocol: as §1

[4] = compound: O=S(=O)(O)C(F)(F)C(F)(F)C(F)(F)C(F)(F)F [Perfluorobutanesulfonic acid]
Protocol: as §1

[5] = compound: O=C(O)C(F)(F)C(F)(F)C(F)(F)C(F)(F)C(F)(F)C(F)(F)C(F)(F)C(F)(F)C(F)(F)C(F)(F)C(F)(F)C(F)(F)C(F)(F)F [Perfluorotetradecanoic acid]
Protocol: as §1

[6] = compound: NC(=O)C(F)(F)C(F)(F)C(F)(F)C(F)(F)C(F)(F)C(F)(F)C(F)(F)F [Perfluorooctanamide]
Protocol: as §1

Row | Test System | level (log10) ([1]; 6700 nM) | level (log10) ([1]; 20000 nM) | level (log10) ([1]; 60000 nM) | level (log10) ([2]; 1400 nM) | level (log10) ([2]; 4200 nM) | level (log10) ([2]; 13000 nM) | level (log10) ([2]; 38000 nM) | level (log10) ([3]; 6700 nM) | level (log10) ([3]; 20000 nM) | level (log10) ([3]; 60000 nM) | level (log10) ([4]; 6700 nM) | level (log10) ([4]; 20000 nM) | level (log10) ([4]; 60000 nM) | level (log10) ([5]; 6700 nM) | level (log10) ([5]; 20000 nM) | level (log10) ([6]; 6700 nM) | level (log10) ([6]; 20000 nM) | level (log10) ([6]; 60000 nM)
1 | LPS:sTNF-alpha | 0.0045 ± 0.026 | -0.0025 ± 0.022 | 0.0035 ± 0.0064 | -0.0135 ± 0.022 | -0.015 ± 0.0099 | -0.035 ± 0.017 | -0.233 ± 0.0078 | 0.005 | 0.0015 ± 0.019 | -0.0155 ± 0.032 | 0.002 ± 0.028 | -0.0175 ± 0.023 | -0.0075 ± 0.026 | -0.009 ± 0.037 | 0.003 ± 0.018 | -0.036 ± 0.034 | -0.025 ± 0.0085 | -0.028 ± 0.0071
2 | BE3C:HLA-DR | -0.006 | -0.017 ± 0.0014 | -0.021 ± 0.028 | -0.0075 ± 0.021 | -0.0095 ± 0.0021 | -0.0165 ± 0.021 | -0.032 ± 0.044 | -0.0035 ± 0.0021 | 0.0105 ± 0.00071 | 0.02 ± 0.03 | -0.003 | 0 ± 0.0028 | 0.0035 ± 0.018 | -0.013 ± 0.041 | -0.0135 ± 0.06 | 0.001 ± 0.017 | -0.0035 ± 0.0078 | 0.0025 ± 0.0092
3 | LPS:CD106/VCAM-1 | -0.006 ± 0.016 | -0.015 ± 0.024 | -0.005 ± 0.0071 | -0.0125 ± 0.03 | -0.0215 ± 0.028 | -0.0595 ± 0.028 | -0.155 ± 0.025 | -0.0165 ± 0.0078 | 0.005 ± 0.0014 | 0.0035 ± 0.0021 | -0.0055 ± 0.012 | 0.0175 ± 0.011 | 0.03 ± 0.0014 | -0.036 ± 0.033 | -0.0565 ± 0.039 | -0.0025 ± 0.012 | 0.006 ± 0.0028 | 0.0245 ± 0.00071
4 | LPS:CD62E/E-Selectin | -0.003 ± 0.035 | 0.0045 ± 0.03 | 0.004 ± 0.033 | 0.0155 ± 0.0035 | 0.0075 ± 0.015 | 0.0145 ± 0.013 | -0.006 | 0.0035 ± 0.013 | 0.001 ± 0.013 | -0.0035 ± 0.0092 | 0.007 ± 0.0071 | 0.0255 ± 0.0092 | 0.028 ± 0.023 | -0.0035 ± 0.011 | 0.01 ± 0.04 | -0.002 ± 0.014 | -0.001 ± 0.011 | 0.0205 ± 0.0078
5 | BT:sIL-17A | 0.02 ± 0.073 | -0.0205 ± 0.21 | -0.0585 ± 0.12 | -0.075 ± 0.078 | -0.179 ± 0.099 | -0.304 ± 0.0057 | -0.804 ± 0.058 | -0.145 ± 0.19 | -0.166 ± 0.005 | -0.0935 ± 0.25 | -0.0215 ± 0.14 | 0.157 ± 0.016 | 0.021 ± 0.2 | -0.111 ± 0.021 | -0.059 ± 0.16 | 0.122 ± 0.016 | 0.0965 ± 0.0035 | 0.034 ± 0.26
6 | BT:sTNF-alpha | 0.026 ± 0.13 | 0.0415 ± 0.039 | 0.116 ± 0.039 | 0.0225 ± 0.22 | -0.168 ± 0.11 | -0.167 ± 0.017 | -0.782 ± 0.077 | 0.078 ± 0.055 | 0.0915 ± 0.057 | 0.011 ± 0.083 | 0.0295 ± 0.011 | 0.0515 ± 0.071 | 0.015 ± 0.011 | 0.014 ± 0.11 | -0.082 ± 0.092 | -0.0175 ± 0.011 | 0.0215 ± 0.056 | -0.129 ± 0.095
7 | BT:sIL-6 | -0.0105 ± 0.11 | 0.0275 ± 0.021 | -0.0155 ± 0.088 | -0.0045 ± 0.042 | -0.0485 ± 0.074 | -0.228 ± 0.013 | -0.563 ± 0.0042 | 0.006 ± 0.044 | 0.049 ± 0.0071 | 0.0385 ± 0.043 | -0.035 ± 0.061 | 0.004 ± 0.067 | 0.012 ± 0.02 | -0.0615 ± 0.052 | -0.0545 ± 0.13 | 0.01 ± 0.023 | 0.0355 ± 0.03 | -0.07 ± 0.025
8 | 4H:VEGFR2 | 0.0005 ± 0.016 | -0.04 ± 0.0099 | -0.0095 ± 0.0078 | -0.0045 ± 0.012 | 0.0015 ± 0.047 | -0.0195 ± 0.0078 | 0.0155 ± 0.06 | 0.0085 ± 0.026 | -0.0015 ± 0.0035 | 0.003 ± 0.035 | -0.049 ± 0.04 | -0.0215 ± 0.026 | -0.012 ± 0.0071 | 0.075 ± 0.11 | 0.084 ± 0.09 | -0.025 ± 0.0099 | -0.0405 ± 0.037 | -0.021 ± 0.025
9 | BF4T:tPA | -0.0195 ± 0.018 | -0.0205 ± 0.028 | -0.0045 ± 0.011 | 0.005 ± 0.048 | -0.034 ± 0.011 | -0.071 ± 0.023 | -0.0935 ± 0.053 | -0.0205 ± 0.00071 | -0.009 ± 0.013 | 0.0155 ± 0.037 | -0.0115 ± 0.021 | 0.0025 ± 0.0092 | 0.0115 ± 0.018 | -0.0015 ± 0.019 | 0.0015 ± 0.049 | -0.015 ± 0.034 | -0.006 ± 0.017 | -0.004 ± 0.0042
10 | BF4T:Keratin 8/18 | -0.006 ± 0.013 | -0.0145 ± 0.015 | 0.0005 ± 0.00071 | 0.0075 ± 0.026 | -0.0055 ± 0.0035 | -0.0115 ± 0.013 | 0.0115 ± 0.026 | -0.036 ± 0.065 | -0.025 ± 0.037 | -0.019 ± 0.037 | -0.0245 ± 0.028 | -0.0145 ± 0.011 | -0.0045 ± 0.015 | -0.0135 ± 0.015 | 0.0195 ± 0.032 | -0.023 ± 0.018 | 0.002 ± 0.021 | -0.0075 ± 0.023
11 | SAg:CCL2/MCP-1 | -0.028 ± 0.0071 | -0.0205 ± 0.0035 | -0.0205 ± 0.016 | -0.004 ± 0.017 | -0.0275 ± 0.0064 | -0.054 ± 0.011 | -0.112 ± 0.056 | 0.0075 ± 0.019 | 0.0065 ± 0.025 | 0.008 ± 0.05 | -0.0225 ± 0.0092 | -0.0075 ± 0.0064 | 0.0185 ± 0.033 | -0.021 ± 0.0057 | -0.0185 ± 0.0064 | -0.008 ± 0.021 | -0.02 ± 0.018 | -0.0085 ± 0.042
12 | 4H:CD87/uPAR | -0.046 ± 0.023 | -0.027 ± 0.057 | -0.005 ± 0.031 | 0.0045 ± 0.018 | -0.03 ± 0.035 | -0.0015 ± 0.00071 | 0.0315 ± 0.00071 | -0.0055 ± 0.035 | 0.004 ± 0.071 | 0.032 ± 0.09 | 0.0115 ± 0.052 | 0.0235 ± 0.022 | 0.025 ± 0.021 | -0.0495 ± 0.097 | -0.0345 ± 0.14 | -0.0055 ± 0.037 | 0.0105 ± 0.021 | -0.0285 ± 0.012
13 | BF4T:CCL2/MCP-1 | 0.0015 ± 0.043 | -0.0225 ± 0.005 | 0.0085 ± 0.032 | 0.0185 ± 0.015 | 0.0025 ± 0.019 | -0.006 ± 0.011 | -0.021 ± 0.0099 | -0.002 ± 0.018 | 0.003 ± 0.057 | -0.0135 ± 0.0021 | 0.028 ± 0.0014 | 0.026 ± 0.024 | 0.033 ± 0.018 | 0.0095 ± 0.016 | 0.0045 ± 0.012 | 0.011 ± 0.0042 | -0.0015 ± 0.0035 | -0.009 ± 0.037
14 | SAg:CD40 | -0.012 ± 0.0014 | -0.0225 ± 0.022 | 0.0095 ± 0.0092 | -0.0125 ± 0.042 | -0.0095 ± 0.019 | -0.055 ± 0.025 | -0.118 ± 0.033 | -0.011 ± 0.018 | 0.0045 ± 0.0092 | 0.0175 ± 0.074 | -0.0075 ± 0.0064 | -0.024 ± 0.011 | -0.0445 ± 0.036 | -0.0395 ± 0.069 | -0.081 ± 0.085 | -0.0215 ± 0.028 | -0.0195 ± 0.0064 | -0.021 ± 0.033
15 | BT:PBMC Cytotoxicity | 0.019 ± 0.027 | -0.017 ± 0.0071 | 0.005 ± 0.014 | 0.002 ± 0.023 | 0.002 ± 0.018 | -0.054 ± 0.017 | -0.085 ± 0.04 | 0.0095 ± 0.026 | -0.015 ± 0.0099 | 0.0105 ± 0.015 | 0.03 ± 0.044 | 0.039 ± 0.027 | 0.057 ± 0.0057 | -0.01 ± 0.0042 | 0.0305 ± 0.059 | 0.012 ± 0.024 | 0.0275 ± 0.025 | 0.0635 ± 0.0035
16 | BE3C:IL-1alpha | -0.014 ± 0.027 | -0.0295 ± 0.005 | -0.0045 ± 0.016 | -0.012 ± 0.0099 | 0.0045 ± 0.011 | -0.019 ± 0.0085 | -0.031 ± 0.051 | 0.003 ± 0.011 | -0.0095 ± 0.022 | -0.0035 ± 0.018 | -0.0175 ± 0.012 | -0.013 ± 0.0085 | -0.0075 ± 0.012 | 0 ± 0.033 | 0.0145 ± 0.005 | -0.015 ± 0.011 | -0.003 ± 0.0042 | 0.0045 ± 0.0064
